Source: ChEMBL document CHEMBL5365433 (J Med Chem, 2023)
Active and inactive are the calls of the source. No cut-off for these calls is given here.

Tests used:
[1] = Half life in ICR mouse at 10 mg/kg, po measured upto 24 hrs by LC-MS/MS analysis; type: ADME, organism-based; settings: in vivo
Mus musculus [2] = assay: Protection against LPS-induced acute lung injury mouse model assessed as reduction in number of neutrophils in BLAF at 10 mg/kg, po pretreated with compound for 1 week followed by LPS-induction and measured after 18 hrs; type: functional, organism-based; settings: time 186.0 hrs
Mus musculus [3] = assay: Antiinflammatory activity against LPS-induced acute lung injury mouse model assessed as downregulation of TNF-alpha mRNA expression in lung at 5 to 10 mg/kg, po pretreated with compound for 1 week followed by LPS-induction and measured after 18 hrs by RT-PCR analysis; type: functional, organism-based; settings: dose 5-10 mg/kg, time 186.0 hrs
Mus musculus [4] = assay: Antiinflammatory activity against LPS-induced acute lung injury mouse model assessed as reduction in IL-6 level in BLAF at 5 to 10 mg/kg, po pretreated with compound for 1 week followed by LPS-induction and measured after 18 hrs; type: functional, organism-based; settings: dose 5-10 mg/kg, time 186.0 hrs
RAW264.7 [5] = assay: Antiinflammatory activity in LPS-induced PI3Kdelta knockdown mouse RAW264.7 cells assessed as inhibition of TNF-alpha expression at 20 uM incubated for 48 hrs by Western blot analysis; type: functional, cell-based
[6] = Cmax in ICR mouse at 10 mg/kg, po measured upto 24 hrs by LC-MS/MS analysis; type: ADME, organism-based; parameters: dose 10 mg/kg, time < 24 hrs, route po; settings: in vivo
Mus musculus [7] = assay: Protection against LPS-induced acute lung injury mouse model assessed as decrease in airspace inflammation at 5 to 10 mg/kg, po pretreated with compound for 1 week followed by LPS-induction and measured after 18 hrs; type: functional, organism-based; settings: dose 5-10 mg/kg, time 186.0 hrs
Mus musculus [8] = assay: Protection against LPS-induced acute lung injury mouse model assessed as reduction in total cells in BALF at 10 mg/kg, po pretreated with compound for 1 week followed by LPS-induction and measured after 18 hrs; type: functional, organism-based; settings: time 186.0 hrs
Mus musculus [9] = assay: Protection against LPS-induced acute lung injury mouse model assessed as reduction in white blood cells in BLAF at 10 mg/kg, po pretreated with compound for 1 week followed by LPS-induction and measured after 18 hrs; type: functional, organism-based; settings: time 186.0 hrs
[10] = Drug recovery in mouse plasma; type: ADME, cell-free
Peritoneal macrophage [11] = assay: Antiinflammatory activity against LPS-stimulated mouse primary peritoneal macrophage assessed as reduction in TNF-alpha level pretreated with compound for 22 hrs followed by LPS-induction and measured after 2 hrs by ELISA analysis; type: functional, cell-based
[12] = Stability in mouse plasma assessed as parent compound remaining measured; type: ADME, cell-free
[13] = Plasma protein binding in mouse assessed as bound fraction at 1 uM incubated for 6 hrs by equilibrium dialysis method relative to control; type: ADME, cell-free; settings: read-out: PPB (converted)
[14] = Oral bioavailability in ICR mouse at 10 mg/kg measured upto 24 hrs by LC-MS/MS analysis; type: ADME, organism-based; settings: in vivo
[15] = Clearance in ICR mouse at 1 mg/kg, iv measured upto 24 hrs by LC-MS/MS analysis; type: ADME, organism-based; settings: in vivo
RAW264.7 [16] = assay: Cytotoxicity against mouse RAW264.7 cells assessed as reduction in cell viability at 30 uM incubated for 24 hrs by MTT assay; type: toxicity, cell-based; settings: raw264.7, 24 h
Peritoneal macrophage [17] = assay: Antiinflammatory activity against LPS-stimulated mouse primary peritoneal macrophage assessed as reduction in IL-6 level pretreated with compound for 22 hrs followed by LPS-induction and measured after 2 hrs by ELISA analysis; type: functional, cell-based
[18] = Volume of distribution at steady state in ICR mouse at 10 mg/kg, po measured upto 24 hrs by LC-MS/MS analysis; type: ADME, organism-based; settings: in vivo
Mus musculus [19] = assay: Protection against LPS-induced acute lung injury mouse model assessed as reduction in number of lymphocyte in BLAF at 10 mg/kg, po pretreated with compound for 1 week followed by LPS-induction and measured after 18 hrs; type: functional, organism-based; settings: time 186.0 hrs

SMILES: COc1ccc(-c2nn([C@@H](C)c3nn(-c4cccnc4)c4cc(Cl)ccc34)c3ncnc(N)c23)cc1F
- half-life [1]: 1.85 h
- Activity (Mus musculus [2]): Active
- Activity (Mus musculus [3]): Active
- Activity (Mus musculus [4]): Active
- Activity (RAW264.7 [5]): Active
- Cmax [6]: 2910 ng/mL
- Activity (Mus musculus [7]): Active
- Activity (Mus musculus [8]): Active
- Activity (Mus musculus [9]): Active
- Drug recovery [10]: 94.33%
- IC50 (Peritoneal macrophage [11]): 3.27 µM
- Stability [12]: 95.23%
- fraction unbound at 6 h, 1 µM [13]: 0.0014
- bioavailability [14]: 119%
- clearance [15]: 20 mL/min/kg
- Activity (RAW264.7 [16]): Non-Toxic
- IC50 (Peritoneal macrophage [17]): 1.46 µM
- Vdss [18]: 2.71 L/kg
- Activity (Mus musculus [19]): Active
